In patent publication US11634396B2 (priority 2021, dated 2023):
Where two headings read alike, the source gives them in different places.

Key:
human mOR = human mOR (Homo sapiens (Human), UniProt P35372); assay: cell-based
kOR (OPRK1) = kOR (OPRK1) (Homo sapiens (Human), UniProt P41145); assay: KOR β-Arrestin antagonist assay (Tango OPRK1-bla U2OS cells); format: cell-based
From the text: KOR β-Arrestin Agonist and Antagonist assays were preformed using the Tango™ OPRK1-bla U2OS cells from Invitrogen and purchased from ThermoFisher, catalog number K1576.

[1] = CHO Tag-lite human mOR stable cell line, forskolin 4 μM and DAMGO at EC90, read-out: mOR cAMP Antagonist Assay IC50

Sequence of human mOR (P35372 whole entry): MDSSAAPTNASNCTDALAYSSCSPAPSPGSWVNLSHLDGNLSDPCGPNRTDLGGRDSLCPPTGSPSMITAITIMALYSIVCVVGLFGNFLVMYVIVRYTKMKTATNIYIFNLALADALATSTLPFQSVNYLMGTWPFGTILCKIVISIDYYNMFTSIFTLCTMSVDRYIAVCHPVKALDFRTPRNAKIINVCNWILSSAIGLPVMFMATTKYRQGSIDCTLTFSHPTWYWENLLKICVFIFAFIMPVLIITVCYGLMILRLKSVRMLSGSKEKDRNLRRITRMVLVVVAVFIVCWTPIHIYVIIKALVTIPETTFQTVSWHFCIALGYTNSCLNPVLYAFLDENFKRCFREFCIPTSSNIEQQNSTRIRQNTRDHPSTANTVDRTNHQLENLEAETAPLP
Sequence of kOR (OPRK1) (P41145 whole entry): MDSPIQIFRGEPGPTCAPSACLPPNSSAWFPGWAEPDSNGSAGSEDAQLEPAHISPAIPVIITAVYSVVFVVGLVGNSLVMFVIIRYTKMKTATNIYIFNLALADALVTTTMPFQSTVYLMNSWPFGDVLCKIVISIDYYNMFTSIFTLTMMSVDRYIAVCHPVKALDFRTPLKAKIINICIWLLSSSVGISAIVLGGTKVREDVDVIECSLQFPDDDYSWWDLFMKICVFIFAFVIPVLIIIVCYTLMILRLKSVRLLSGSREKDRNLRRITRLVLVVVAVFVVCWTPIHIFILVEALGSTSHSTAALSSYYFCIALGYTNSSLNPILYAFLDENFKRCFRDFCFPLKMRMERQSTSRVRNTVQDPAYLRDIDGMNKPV

Row | Structure (SMILES) | IC50 (human mOR; [1]) | IC50 (kOR (OPRK1)) | IC50 (human mOR)
1 | Cc1cc(C(N)=O)cc(C)c1C[C@@H](CNC(=O)C1CC1c1ncccn1)N(C)C (stereo partly drawn) [Compound 6, 4-((2S)-2-(dimethylamino)-3-(2-(pyrimidin-2-yl)cyclopropane-1-carboxamido)propyl)-3,5-dimethylbenzamide] | 0.3 to 3 µM | 0.3 to 3 µM | 
2 | Cc1ccc([C@H](CC(=O)NC[C@H](Cc2ccc(C(N)=O)c(F)c2Cl)N(C)C)C2(C(F)(F)F)CC2)cn1 [Compound 17, 3-chloro-4-[(2S)-2-(dimethylamino)-3-[(3S)-3-(6-methylpyridin-3-yl)-3-[1-(trifluoromethyl)cyclopropyl]propanamido]propyl]-2-fluorobenzamide] | > 3 µM | < 0.3 µM | 
3 | CN(C)[C@H](CNC(=O)C[C@H](c1cccnc1)C1(C(F)(F)F)CC1)Cc1ccc(C(N)=O)c(F)c1Cl [Compound 18, 3-chloro-4-[(2S)-2-(dimethylamino)-3-[(3R)-3-(pyridin-3-yl)-3-[1-(trifluoromethyl)cyclopropyl]propanamido]propyl]-2-fluorobenzamide] |  | < 0.3 µM | > 3 µM
4 | CN(C)[C@H](CNC(=O)CC(c1ncc(Cl)cn1)C1(C(F)(F)F)CC1)Cc1ccc(C(N)=O)c(F)c1Cl (stereo partly drawn) [Compound 22, 3-chloro-4-[(2S)-3-[3-(5-chloropyrimidin-2-yl)-3-[1-(trifluoromethyl)cyclopropyl]propanamido]-2-(dimethylamino)propyl]-2-fluorobenzamide] | < 0.3 µM | < 0.3 µM | 
5 | Cc1ncc([C@@H](CC(=O)NC[C@H](Cc2ccc(C(N)=O)cc2Cl)N(C)C)C2(C(F)(F)F)CC2)cn1 [Compound 24, 3-chloro-4-[(2S)-2-(dimethylamino)-3-[(3R)-3-(2-methylpyrimidin-5-yl)-3-[1-(trifluoromethyl)cyclopropyl]propanamido]propyl]benzamide] |  | < 0.3 µM | < 0.3 µM
6 | Cc1ncc([C@@H](CC(=O)NC[C@H](Cc2ccc(C(N)=O)cc2Cl)N(C)C)C2CC2)cn1 [Compound 25, 3-chloro-4-[(2S)-3-[(3S)-3-cyclopropyl-3-(2-methylpyrimidin-5-yl)propanamido]-2-(dimethylamino)propyl]benzamide] |  | 0.3 to 3 µM | < 0.3 µM
7 | CN(C)[C@H](CNC(=O)C[C@H](c1cccnc1)C1(C(F)(F)F)CC1)Cc1ccc(C(N)=O)cc1Cl [Compound 28, 3-chloro-4-((S)-2-(dimethylamino)-3-((R)-3-(pyridin-3-yl)-3-(1-(trifluoromethyl)cyclopropyl)propanamido)propyl)benzamide] |  | < 0.3 µM | < 0.3 µM
8 | CN(C)[C@H](CNC(=O)CC(c1ccc(C(F)(F)F)nc1)C1(C(F)(F)F)CC1)Cc1ccc(C(N)=O)cc1Cl (stereo partly drawn) [Compound 32, 3-chloro-4-[(2S)-2-(dimethylamino)-3-{3-[1-(trifluoromethyl)cyclopropyl]-3-[6-(trifluoromethyl)pyridin-3-yl]propanamido}propyl]benzamide] | < 0.3 µM | < 0.3 µM | 
9 | COc1ncc(C(CC(=O)NC[C@H](Cc2ccc(C(N)=O)cc2Cl)N(C)C)C2(C(F)(F)F)CC2)cn1 (stereo partly drawn) [Compound 33, 3-chloro-4-[(2S)-2-(dimethylamino)-3-[3-(2-methoxypyrimidin-5-yl)-3-[1-(trifluoromethyl)hydropropyl]propanamido]propyl]benzamide] |  | < 0.3 µM | < 0.3 µM
10 | Cc1ncc(C(CC(=O)NC[C@H](Cc2ccc(C(N)=O)cc2Cl)N(C)C)C2(C(F)(F)F)CC2)cn1 (stereo partly drawn) [Compound 34, 3-chloro-4-[(2S)-2-(dimethylamino)-3-[3-(2-methylpyrimidin-5-yl)-3-[1-(trifluoromethyl)cyclopropyl]propanamido]propyl]benzamide] |  | < 0.3 µM | < 0.3 µM
11 | COc1ccc(C(CC(=O)NC[C@H](Cc2ccc(C(N)=O)cc2Cl)N(C)C)C2(C(F)(F)F)CC2)cn1 (stereo partly drawn) [Compound 35, 3-chloro-4-[(2S)-2-(dimethylamino)-3-[3-(6-methoxypyridin-3-yl)-3-[1-(trifluoromethyl)cyclopropyl]propanamido]propyl]benzamide] |  | < 0.3 µM | < 0.3 µM
12 | CN(C)[C@H](CNC(=O)CC(c1cncc(F)c1)C1(C(F)(F)F)CC1)Cc1ccc(C(N)=O)cc1Cl (stereo partly drawn) [Compound 36, 3-chloro-4-[(2S)-2-(dimethylamino)-3-[3-(5-fluoropyridin-3-yl)-3-[1-(trifluoromethyl)cyclopropyl]propanamido]propyl]benzamide] | < 0.3 µM | < 0.3 µM | 
13 | CN(C)[C@H](CNC(=O)CC(c1ccc(Cl)cn1)C1(C(F)(F)F)CC1)Cc1ccc(C(N)=O)cc1Cl (stereo partly drawn) [Compound 37, 3-chloro-4-[(2S)-3-[3-(5-chloropyridin-2-yl)-3-[1-(trifluoromethyl)cyclopropyl]propanamido]-2-(dimethylamino)propyl]benzamide] |  | < 0.3 µM | < 0.3 µM
14 | CN(C)[C@H](CNC(=O)CC(c1cccnc1)C1(C(F)(F)F)CC1)Cc1ccc(C(N)=O)cc1Cl (stereo partly drawn) [Compound 38, 3-chloro-4-[(2S)-2-(dimethylamino)-3-[3-(pyridin-3-yl)-3-[1-(trifluoromethyl)cyclopropyl]propanamido]propyl]benzamide] |  | < 0.3 µM | < 0.3 µM
15 | CN(C)[C@H](CNC(=O)C[C@@H](c1cccnc1)C1(C(F)(F)F)CC1)Cc1ccc(C(N)=O)cc1Cl [Compound 41, 3-chloro-4-((S)-2-(dimethylamino)-3-((S)-3-(pyridin-3-yl)-3-(1-(trifluoromethyl)cyclopropyl)propanamido)propyl)benzamide] |  | < 0.3 µM | < 0.3 µM
16 | COc1ccc(C(CC(=O)NC[C@H](Cc2cc(F)c(C(N)=O)c(F)c2)N(C)C)C2(C(F)(F)F)CC2)cn1 (stereo partly drawn) [Compound 49, 4-[(2S)-2-(dimethylamino)-3-[3-(6-methoxypyridin-3-yl)-3-[1-(trifluoromethyl)cyclopropyl]propanamido]propyl]-2,6-difluorobenzamide] |  | < 0.3 µM | > 3 µM
17 | Cc1ncc([C@@H](CC(=O)NC[C@H](Cc2ccc(C(N)=O)c(F)c2)N2CCCC2)C2(C(F)(F)F)CC2)cn1 [Compound 65, 2-fluoro-4-((S)-3-((R)-3-(2-methylpyrimidin-5-yl)-3-(1-(trifluoromethyl)cyclopropyl)propanamido)-2-(pyrrolidin-1-yl)propyl)benzamide] |  | 0.3 to 3 µM | > 3 µM
18 | CN(C)[C@H](CNC(=O)C[C@@H](CC1CC1)c1cccnc1)Cc1ccc(C(N)=O)c(F)c1 [Compound 66, 4-((S)-3-((R)-4-cyclopropyl-3-(pyridin-3-yl)butanamido)-2-(dimethylamino)propyl)-2-fluorobenzamide] |  | < 0.3 µM | < 0.3 µM
19 | CN(C)[C@H](CNC(=O)CC(c1cncnc1)C1(C(F)(F)F)CC1)Cc1ccc(C(N)=O)c(F)c1 (stereo partly drawn) [Compound 72, 4-[(2S)-2-(dimethylamino)-3-[3-(pyrimidin-5-yl)-3-[1-(trifluoromethyl)cyclopropyl]propanamido]propyl]-2-fluorobenzamide] | < 0.3 µM | < 0.3 µM | 
20 | CN(C)[C@H](CNC(=O)CC(c1ncc(Cl)cn1)C1(C(F)(F)F)CC1)Cc1ccc(C(N)=O)c(F)c1 (stereo partly drawn) [Compound 73, 4-[(2S)-3-[3-(5-chloropyrimidin-2-yl)-3-[1-(trifluoromethyl)cyclopropyl]propanamido]-2-(dimethylamino)propyl]-2-fluorobenzamide] |  | < 0.3 µM | < 0.3 µM
21 | CN(C)[C@H](CNC(=O)CC(c1cccnc1)C1(C(F)(F)F)CC1)Cc1ccc(C(N)=O)c(F)c1 (stereo partly drawn) [Compound 74, 4-[(2S)-2-(dimethylamino)-3-[3-(pyridin-3-yl)-3-[1-(trifluoromethyl)cyclopropyl]propanamido]propyl]-2-fluorobenzamide] |  | < 0.3 µM | > 3 µM
22 | Cc1ccc([C@@H](CC(=O)NC[C@H](Cc2ccc(C(N)=O)c(F)c2)N(C)C)C2(C(F)(F)F)CC2)cn1 [Compound 75, 4-[(2S)-2-(dimethylamino)-3-[(3R)-3-(6-methylpyridin-3-yl)-3-[1-(trifluoromethyl)cyclopropyl]propanamido]propyl]-2-fluorobenzamide] |  | < 0.3 µM | < 0.3 µM
23 | CN(C)[C@H](CNC(=O)CC(c1cncc(F)c1)C1(C(F)(F)F)CC1)Cc1ccc(C(N)=O)c(F)c1 (stereo partly drawn) [Compound 76, 4-[(2S)-2-(dimethylamino)-3-[3-(5-fluoropyridin-3-yl)-3-[1-(trifluoromethyl)cyclopropyl]propanamido]propyl]-2-fluorobenzamide] |  | < 0.3 µM | > 3 µM
24 | CN(C)[C@H](CNC(=O)C[C@H](c1ccccn1)C1(C(F)(F)F)CC1)Cc1ccc(C(N)=O)cc1 [Compound 81, 4-((S)-2-(dimethylamino)-3-((S)-3-(pyridin-2-yl)-3-(1-(trifluoromethyl)cyclopropyl)propanamido)propyl)benzamide] |  | < 0.3 µM | < 0.3 µM
25 | CN(C)[C@H](CNC(=O)C[C@@H](c1ccccn1)C1(C(F)(F)F)CC1)Cc1ccc(C(N)=O)cc1 [Compound 84, 4-[(2S)-2-(dimethylamino)-3-[(3R)-3-(pyridin-2-yl)-3-[1-(trifluoromethyl)cyclopropyl]propanamido]propyl]benzamide] |  | < 0.3 µM | < 0.3 µM
26 | CNC(=O)c1ccc(C[C@@H](CNC(=O)C[C@@H](c2ccc(Cl)cn2)C2(C(F)(F)F)CC2)N(C)C)c(C)c1 [Compound 137, 4-((S)-3-((R)-3-(5-chloropyridin-2-yl)-3-(1-(trifluoromethyl)cyclopropyl)propanamido)-2-(dimethylamino)propyl)-N,3-dimethylbenzamide] |  | < 0.3 µM | 
27 | CNC(=O)c1ccc(C[C@@H](CNC(=O)C[C@H](c2ccc(Cl)cn2)C2(C(F)(F)F)CC2)N(C)C)c(C)c1 [Compound 138, 4-((S)-3-((S)-3-(5-chloropyridin-2-yl)-3-(1-(trifluoromethyl)cyclopropyl)propanamido)-2-(dimethylamino)propyl)-N,3-dimethylbenzamide] |  | < 0.3 µM | 
